pIC50: −log10 of the molar value.
Key:
[1] = system: Sprague-Dawley rat hepatocytes; test: MetID determination in rat hepatocytes; type: in vitro ADME; details: for major metabolic pathway: rat hepatocytes
Method: (§1) Cryopreserved human and Sprague-Dawley rat hepatocytes were thawed in a 37° C. water bath. […] Samples were obtained from separate plates for each time point during the incubation. At each sampling time, the plates were removed from the incubator, quenched by adding 100 μL cold acetonitrile, and placed in an ice bath until centrifugation at 4,000 rpm for 30 minutes at 4° C. Supernatants were stored at or below −70° C. until LC-MS/MS analysis could be conducted. The liquid chromatography system used was Agilent 1100 Autosampler, Binary Pump, DAD and Column Enclosure. Tandem mass spectrometry was conducted using a Thermo DECA XP MAX Ion Trap Mass Spectrometer. The ion source was Electrospray (+) and the LC column used was a Varian, Polaris 5 C18-A (250×2.1 mm, 5 micron) column.
(§2) Metabolic pathways of metoclopramide and conjugates were determined in rat and human hepatocytes. N-dealkylation was the major metabolic pathway for metoclopramide in rats, and metabolism in human hepatocytes was minimal. […] FIG. 2 and FIG. 3 show the metabolic pathway of for mPEG1-N-metoclopramide and mPEG4-N-metoclopramide, respectively. […] In this figure, different metabolites for each conjugate are denoted with the “M” and correspond to the designation provided in the figure for a given conjugate. For example, metabolite M1 for mPEG1-N-metoclopramide in Table 6 corresponds to M1 in FIG. 2, metabolite M2 for mPEG4-N-metoclopramide in Table 6 corresponds to M2 in FIG. 3 and metabolite M3 mPEG8-N-metoclopramide in Table 6 corresponds to M3 in FIG. 4.

[2] = system: human hepatocytes; test: MetID determination in human hepatocytes; type: in vitro ADME
Method: as §1, §2

[3] = in vivo; details: male, Sprague Dawley, rat, plasma; for AUC(0-inf) / MRT inf / Vd / clearance / half-life: iv, 0.5 mg/kg
Method: (§3) Rat pharmacokinetic (“PK”) characterization was conducted in male Sprague Dawley Rats (Rattus Norvegicus) weighing between 210-260 gm (Charles River Laboratories (Hollister, Calif.)). Rats were fed a standard diet and water was available ad-libidum at all times. […] Animals were dosed either orally (2.5 mg/Kg) via gavage or intravenously (0.5 mg/kg) via the jugular vein cannula. Blood samples (˜0.15 mL) were collected through carotid artery cannula at respective time points and transferred immediately into K2EDTA-coated tubes (that contain quenching media-acetic acid, PMSF and Dichlorvos) and placed on ice. The samples were centrifuged within thirty minutes after collection at 10,000 RPM for five minutes and the resulting plasma was separated. Plasma were transferred into microfuge tubes and placed on dry ice immediately. The plasma samples were stored at approximately −70° C. until shipped on dry ice for Bioanalysis by LC/MS/MS. Urine samples were collected using metabolic cages into a tube containing citric acid (4 mg for 0-4 and 4-8 hr interval and 16 mg for 8-24 hr interval) on wet ice at the intervals specified in the study design. After the completion of urine collection at each interval, each cage was rinsed with 2 mL of deionized water (1 mL each time). The rinse was collected in the separate labeled container (containing 2 mg of citric acid) as the urine. Following this rinse another 2 ml rinse was carried out with ethanol (1 ml each time). The rinse was also collected in the separate labeled container as the urine. Samples were stored frozen at −70° C. until bioanalysis by LC/MS/MS was performed.
(§4) Pharmacokinetic parameters were determined by non-compartmental analysis using Phoenix®WinNonlin® (Version 6.3; Pharsight Corp., Mountain View, Calif.). Nominal doses and sampling times were used for the analysis. Concentrations reported as BLQ were treated as missing unless they were pre-dose; then they were set to zero. Maximum plasma concentration (Cmax) and time of observed maximum plasma analyte concentration (Tmax) were generated by Phoenix®WinNonlin®, directly from the inputed dataset. […] Area under the plasma concentration-time curve from time 0 to infinity (AUCinf) was calculated as the sum of AUClast and the last observed concentration divided by k. Total plasma clearance (CL) was calculated as Dose/AUCinf. Apparent volume of distribution at steady state (Vss) was calculated as MRTinf*CL, where MRT is the mean residence time.

[4] = molecular target: T1, 5HT4B receptors (serotonin 4B receptors) (Homo sapiens, UniProt Q13639); test: Competition binding assay (serotonin 4B receptors), [3H]GR113808; details: for Fold-change Relative to Parent: IC50 relative to metoclopramide, 5HT4B binding; for pIC50: [3H]GR113808 competition, HEK 293 membranes expressing 5HT4B
T1 construct: expressed in transfected cells

[5] = molecular target: serotonin 4 receptor (5HT4) (Homo sapiens, UniProt Q13639); test: cAMP accumulation assay (serotonin 4 receptors); type: cell-based; details: for Fold-change Relative to Parent: IC50 relative to metoclopramide, 5HT4 cAMP; for pIC50: cAMP accumulation, CHO-K1 cells stably expressing 5HT4
[6] = molecular target: T2, dopamine 2S receptor (Homo sapiens, UniProt P14416); test: β-Arrestin functional assay (dopamine), antagonist mode; type: cell-based; details: for Fold-change Relative to Parent: IC50 relative to metoclopramide, D2S β-arrestin; for pIC50: β-arrestin interaction, CHO-K1 cells expressing D2S, dopamine at EC80 (400 nM)
T2 construct: host or cells: CHO-K1 (PathHunter eXpress β-arrestin cells)

[7] = molecular target: dopamine 2L receptors (Homo sapiens, UniProt P14416); test: Competition binding assay (dopamine 2L receptors), [3H]methylspiperone; parameters: expressed in transfected cells; details: for Fold-change Relative to Parent: IC50 relative to metoclopramide, D2L binding; for pIC50: [3H]methylspiperone competition, HEK 293 membranes expressing D2L, read-out: IC50
Method: [^3H] Methylspiperone was diluted in assay buffer to a final concentration of 0.4 nM. To start the assay, 1 uL of compound was added into 96-well v-bottom plates, followed by the addition of 50 uL of diluted membrane preparation, then finally diluted [^3H] Methylspiperone was added. The assay mixture was incubated for 60 minutes at room temperature with shaking. Following incubation, bound [^3H] methylspiperone on 5% PEI soaked GF/B filter plates using a Filtermate Harvester (Perkin Elmer) were then washed four times with ice cold wash buffer (50 mM Tris-HCl, pH 7.5). Filter plates were air dried for two minutes, and then 50 uL of MicroScint-20 was added into each well. Radioactivity counts were quantified using a Top Count plate reader (Perkin Elmer). Data was analyzed using one-site binding competition non-linear regression curve fitting on GraphPad Prism.

[8] = Rat PK (intravenous and oral); details: for CLRen: intravenous, 0.5 mg/kg; for Clast / Tlast: oral gavage, 2.5 mg/Kg
Method: as §3, §4

[9] = incubation of 10 μM mPEG8-N-metoclopramide, parent and its metabolites M (FIG. 4)
[10] = incubation of 10 μM mPEG1-N-metoclopramide, parent and its metabolites M (FIG. 2)
[11] = incubation of 10 μM mPEG4-N-metoclopramide, parent and its metabolites M (FIG. 3)

dopamine 2L receptors, sequence (P14416 whole entry): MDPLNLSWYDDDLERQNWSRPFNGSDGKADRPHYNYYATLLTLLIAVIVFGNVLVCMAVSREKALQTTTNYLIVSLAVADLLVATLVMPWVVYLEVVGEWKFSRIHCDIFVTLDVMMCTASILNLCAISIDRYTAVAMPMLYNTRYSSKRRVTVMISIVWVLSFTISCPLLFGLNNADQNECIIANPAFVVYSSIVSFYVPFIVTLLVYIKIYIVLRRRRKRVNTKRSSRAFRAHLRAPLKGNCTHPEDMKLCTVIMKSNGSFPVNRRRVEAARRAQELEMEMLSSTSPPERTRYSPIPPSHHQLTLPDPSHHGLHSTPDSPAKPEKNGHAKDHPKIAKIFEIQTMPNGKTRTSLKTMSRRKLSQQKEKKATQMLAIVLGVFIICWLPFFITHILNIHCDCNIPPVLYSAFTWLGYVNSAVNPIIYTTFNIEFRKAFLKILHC
T2 sequence (P14416 1-414 isoform P14416-2): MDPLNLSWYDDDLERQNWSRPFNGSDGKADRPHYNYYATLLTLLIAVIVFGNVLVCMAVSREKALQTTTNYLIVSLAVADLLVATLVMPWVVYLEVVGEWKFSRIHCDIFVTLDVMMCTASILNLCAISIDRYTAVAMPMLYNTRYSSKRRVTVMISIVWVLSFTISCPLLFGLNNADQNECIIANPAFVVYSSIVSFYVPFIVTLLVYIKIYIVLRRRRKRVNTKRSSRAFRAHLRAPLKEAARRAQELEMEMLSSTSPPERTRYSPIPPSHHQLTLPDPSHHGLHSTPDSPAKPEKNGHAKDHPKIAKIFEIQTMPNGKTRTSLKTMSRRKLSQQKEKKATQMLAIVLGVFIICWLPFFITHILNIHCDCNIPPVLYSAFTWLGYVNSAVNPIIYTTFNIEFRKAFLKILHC
serotonin 4 receptor (5HT4), sequence (Q13639 whole entry, species assumed): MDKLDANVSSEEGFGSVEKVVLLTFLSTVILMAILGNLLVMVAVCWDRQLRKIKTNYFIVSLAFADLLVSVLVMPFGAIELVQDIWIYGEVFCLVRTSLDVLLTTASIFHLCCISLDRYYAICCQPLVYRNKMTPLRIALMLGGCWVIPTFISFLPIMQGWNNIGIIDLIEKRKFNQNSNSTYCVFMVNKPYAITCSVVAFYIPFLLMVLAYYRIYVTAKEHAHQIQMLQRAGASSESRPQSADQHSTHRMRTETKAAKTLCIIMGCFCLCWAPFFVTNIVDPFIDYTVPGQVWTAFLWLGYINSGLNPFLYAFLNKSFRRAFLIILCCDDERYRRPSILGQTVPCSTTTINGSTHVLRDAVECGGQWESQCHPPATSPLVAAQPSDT
T1 sequence (Q13639 whole entry): as the sequence (Q13639 whole entry, species assumed) above

SMILES	% of Total Metabolism, Rat Hep 1 hr [1, 9]	% of Total Metabolism, Rat Hep 4 hr [1, 9]	% of Total Metabolism, Human Hep 1 hr [2, 9]	% of Total Metabolism, Human Hep 4 hr [2, 9]	major metabolic pathway [1]	AUC(0-inf) [3] [ng·h/mL]	MRT inf [3] [min]	Vd [3] [L/kg]	clearance [3] [mL/min/kg]	half-life [3] [min]	Fold-change Relative to Parent [4]	pIC50 [4]	Fold-change Relative to Parent [6]	pIC50 [6]	extent of metabolism in human hepatocytes [2]	Fold-change Relative to Parent [7]	pIC50 [7]	CLRen [8] [mL/min/kg]	also measured
CCN(CCNC(=O)c1cc(Cl)c(N)cc1OC)CCOC [mPEG1-N-Metoclopramide]	–	–	–	–	N-dealkylation	88.3	27.6	2.84	101	39	1.3	4.71	4.19	6.46	low metabolism	2.8	6.63	4.4	% of Total Metabolism, Rat Hep 1 hr [1, 10]: 32.7%; % of Total Metabolism, Rat Hep 4 hr [1, 10]: <1.0%; AUC ([3]; po, 2.5 mg/kg): 24.2 ng·h/mL; CL/F ([3]; po, 2.5 mg/kg): 1550 mL/min/kg; Cmax ([3]; po, 2.5 mg/kg): 33.2 ng/mL; Tmax ([3]; po, 2.5 mg/kg): 4.8 min; bioavailability ([3]; po, 2.5 mg/kg): 6.25%; Fold-change Relative to Parent [5]: 1.5; pIC50 [5]: 5.80; % of Total Metabolism, Human Hep 1 hr [2, 10]: 86.5%; % of Total Metabolism, Human Hep 4 hr [2, 10]: 90.2%; Clast [8]: 4.39 ng/mL; Tlast [8]: 2.5 h
CCN(CCNC(=O)c1cc(Cl)c(N)cc1OC)CCOCCOC [mPEG2-N-Metoclopramide]	–	–	–	–	–	–	–	–	–	–	2.0	4.53	9.57	6.10	–	16.1	5.87	–	–
CCN(CCNC(=O)c1cc(Cl)c(N)cc1OC)CCOCCOCCOCCOC [mPEG4-N-Metoclopramide]	–	–	–	–	N-dealkylation	63.5	33.6	7.17	133	39	2.0	4.51	37.03	5.52	low metabolism	38.7	5.49	9.0	% of Total Metabolism, Rat Hep 1 hr [1, 11]: 61.5%; % of Total Metabolism, Rat Hep 4 hr [1, 11]: 16.1%; AUC ([3]; po, 2.5 mg/kg): 41.4 ng·h/mL; Cmax ([3]; po, 2.5 mg/kg): 16.6 ng/mL; Tmax ([3]; po, 2.5 mg/kg): 120 min; bioavailability ([3]; po, 2.5 mg/kg): 14.5%; Fold-change Relative to Parent [5]: 0.62; pIC50 [5]: 6.19; % of Total Metabolism, Human Hep 1 hr [2, 11]: 100%; % of Total Metabolism, Human Hep 4 hr [2, 11]: 93.7%; Clast [8]: 3 ng/mL; Tlast [8]: 5 h
CCN(CCNC(=O)c1cc(Cl)c(N)cc1OC)CCOCCOCCOCCOCCOCCOCCOC [mPEG7-N-Metoclopramide]	–	–	–	–	–	–	–	–	–	–	8.8	3.88	99.57	5.09	–	137.3	4.94	–	–
CCN(CCNC(=O)c1cc(Cl)c(N)cc1OC)CCOCCOCCOCCOCCOCCOCCOCCOC [mPEG8-N-Metoclopramide]	83%	43.5%	100%	94.8%	PEG chain modification	98.3	146	17.8	84.4	145	11.9	3.74	67.4	5.26	only minor metabolism	80.7	5.17	0.54	N-dealkylation compared with metoclopramide ([1]; hepatocytes): less compared with metoclopromide
CCN(CCNC(=O)c1cc(Cl)c(N)cc1OC)CCOCCOCCOCCOCCOCCOCCOCCOCCOC [mPEG9-N-Metoclopramide]	–	–	–	–	–	–	–	–	–	–	13.3	3.69	87.86	5.14	–	131.9	4.95	–	Fold-change Relative to Parent ([6]; listed as mPEG9-N-metoclopramide): 87.6

Further lines, with some results ahead:

% of Total Metabolism, Rat Hep 1 hr [1, 9]	% of Total Metabolism, Rat Hep 4 hr [1, 9]	% of Total Metabolism, Human Hep 1 hr [2, 9]	% of Total Metabolism, Human Hep 4 hr [2, 9]	major metabolic pathway [1]	AUC(0-inf) [3] [ng·h/mL]	MRT inf [3] [min]	Vd [3] [L/kg]	clearance [3] [mL/min/kg]	half-life [3] [min]	Fold-change Relative to Parent [4]	pIC50 [4]	Fold-change Relative to Parent [6]	pIC50 [6]	extent of metabolism in human hepatocytes [2]	Fold-change Relative to Parent [7]	pIC50 [7]	CLRen [8] [mL/min/kg]	SMILES	also measured
Trace	1%	trace	trace	–	–	–	–	–	–	–	–	–	–	–	–	–	–	CCN(CCNC(=O)c1cc(Cl)c(N)cc1OC)CCOCCOCCOCCOCCOCCO [M15]	–
trace	trace	trace	trace	–	–	–	–	–	–	–	–	–	–	–	–	–	–	CCN(CCNC(=O)c1cc(Cl)c(N)cc1OC)CCOCCOCCOCCOCCOCCOCCO [M16]	–
trace	trace	trace	trace	–	–	–	–	–	–	–	–	–	–	–	–	–	–	CCN(CCNC(=O)c1cc(Cl)c(N)cc1OC)CCOCCOCCOCCOCCOCCOCCOCCO [M17]	–

Source: patent publication US10434181B2, “Oligomer-containing benzamide-based compounds” (Nektar Therapeutics, priority 2012, dated 2019)
